Assay results taken from patent US20130149701A1, “METHODS OF IDENTIFYING THERAPEUTIC AGENTS FOR TREATING PERSISTER AND BACTERIAL INFECTION” (priority 2010, published 2013).
Converted amounts (≈) assume the structure as drawn. “Also recorded” adds a separate entry of the source. Like-named read-outs stand apart in the source and are kept apart here.

Tests used:
[1] = biological target: DHM444 mutant RpsA binding to tmRNA (Mycobacterium tuberculosis, UniProt P9WH43, DEL438-438); parameters: species or system M. tuberculosis
[2] = tested on: M. tuberculosis strains (wild type and wild type/pOLYG, and wild type/pOLYG+rpsA); assay: microbe, parasite or virus in culture; assay type: cell-based; settings: for susceptibility of the RpsA overexpressing Mtb strain to other drugs: compared with parent strain or vector control strain, pH6.8; for MIC: Mycobacterium tuberculosis, read-out: minimum inhibitory concentration (MIC)
[3] = biological target: mutant RpsAΔA438 from the PZA-resistant strain DHM444 (Mycobacterium tuberculosis, UniProt P9WH43, DEL438-438); assay type: binding, M. tuberculosis
M. tuberculosis = assay type: cell-based
[4] = tested on: Mtb clinical isolate DHM444 / H37Rv; assay: microbe, parasite or virus in culture; assay type: cell-based, M. tuberculosis; settings: Mycobacterium tuberculosis

| SMILES | effect on tmRNA binding to mutant RpsA [1] | susceptibility of the RpsA overexpressing Mtb strain to other drugs [2] | binding to mutant RpsA (ITC) [3] | further results |
| --- | --- | --- | --- | --- |
| NNC(=O)c1ccncc1 [INH, isoniazid] | no effect; also recorded: not affected | remained the same |  |  |
| O=C(O)c1cnccn1 [POA, 2-pyrazinecarboxylic acid] | did not inhibit |  | not and failed to bind |  |
| NC(=O)c1cnccn1 [PZA, Pyrazinamide] | no effect; also recorded: not affected |  | did not bind; also recorded: failed to bind | MIC (M. tuberculosis): 10 µg/mL (≈ 81.2 µM); PZA susceptibility (M. tuberculosis): more susceptible; effect on PZA susceptibility (M. tuberculosis): did not have significant effect; reduction in MIC (M. tuberculosis): 5 fold; MIC [4]: 200 to 300 µg/mL (≈ 1620 to 2440 µM); MIC ([2]; pH 5.5, PZA, vector control and parental Mtb strain, pH 5.5): 100 µg/mL (≈ 812 µM); MIC ([2]; pH 5.5): 500 µg/mL (≈ 4060 µM); increase in the minimum inhibitory concentration (MIC) ([2]; pH 5.5): 5 fold |
| CCn1cc(C(=O)O)c(=O)c2cc(F)c(N3CCNCC3)cc21 [norfloxacin] |  | remained the same |  |  |
| CO[C@H]1/C=C/O[C@@]2(C)Oc3c(C)c(O)c4c(O)c(c(/C=N/N5CCN(C)CC5)c(O)c4c3C2=O)NC(=O)/C(C)=C\C=C\[C@H](C)[C@H](O)[C@@H](C)[C@@H](O)[C@@H](C)[C@H](OC(C)=O)[C@@H]1C [rifampin] |  | remained the same |  |  |
| [H]/N=C(/N)N[C@H]1[C@H](O)[C@@H](O)[C@H](O[C@@H]2O[C@@H](C)[C@](O)(C=O)[C@H]2O[C@@H]2O[C@@H](CO)[C@H](O)[C@@H](O)[C@@H]2NC)[C@@H](N/C(N)=N\[H])[C@@H]1O [streptomycin] |  | remained the same |  |  |
